From ChEMBL document CHEMBL3885881, “DrugMatrix”

Organism: Rattus norvegicus
Assay: DrugMatrix - Regimen: Daily Repeat
Assay type: toxicity, organism-based, Sprague-Dawley
Set-up: regimen Daily Repeat, gender Male, age 6-8 weeks
Details: in vivo, iv, vehicle 100 % SALINE; for ABSOLUTE BASOPHIL / ABSOLUTE EOSINOPHIL / ABSOLUTE LYMPHOCYTE / ABSOLUTE MONOCYTE / ABSOLUTE SEGMENTED NEUTROPHIL / BASOPHIL / EOSINOPHIL / ERYTHROCYTE COUNT / HEMATOCRIT / HEMOGLOBIN / LEUKOCYTE COUNT / LYMPHOCYTE / MEAN CORPUSCULAR HEMOGLOBIN / MEAN CORPUSCULAR HEMOGLOBIN CONCENTRATION / MEAN CORPUSCULAR VOLUME / MONOCYTE / NEUTROPHIL / NUCLEATED RED BLOOD CELLS / PLATELET COUNT: tissue Blood; for ALANINE AMINOTRANSFERASE / ALBUMIN / ALKALINE PHOSPHATASE / ASPARTATE AMINOTRANSFERASE / BLOOD UREA NITROGEN / CARBON DIOXIDE / CHLORIDE / CHOLESTEROL / CREATINE PHOSPHOKINASE / CREATININE / GLUCOSE / LACTATE DEHYDROGENASE / LIPASE / PHOSPHORUS / POTASSIUM / SODIUM / TOTAL BILIRUBIN / TOTAL PROTEIN / URIC ACID: tissue Plasma
[1] = 10 mg/kg, 120 h, dose level Low, time 5 day
[2] = 350 mg/kg, 72 h, dose level High, time 3 day
[3] = 350 mg/kg, 120 h, dose level High, time 5 day

SMILES: O=C(O)P(=O)(O)O [FOSCARNET]
- ABSOLUTE BASOPHIL [1]: 0 CELLS/uL
- ABSOLUTE EOSINOPHIL [1]: 341 CELLS/uL
- ABSOLUTE LYMPHOCYTE [1]: 13776.67 CELLS/uL
- ABSOLUTE MONOCYTE [1]: 353.33 CELLS/uL
- ABSOLUTE SEGMENTED NEUTROPHIL [1]: 929 CELLS/uL
- BASOPHIL [1]: 0%
- EOSINOPHIL [1]: 2%
- ERYTHROCYTE COUNT [1]: 5.8 x10E6/uL
- HEMATOCRIT [1]: 36.87%
- HEMOGLOBIN [1]: 13.6 G/DL
- LEUKOCYTE COUNT [1]: 15.4 x10E3/uL
- LYMPHOCYTE [1]: 89.67%
- MEAN CORPUSCULAR HEMOGLOBIN [1]: 23.47 pg
- MEAN CORPUSCULAR HEMOGLOBIN CONCENTRATION [1]: 36.93 G/DL
- MEAN CORPUSCULAR VOLUME [1]: 63.6 fL
- MONOCYTE [1]: 2.33%
- NEUTROPHIL [1]: 6%
- NUCLEATED RED BLOOD CELLS [1]: 0 /100WBC
- PLATELET COUNT [1]: 1343 x10E3/uL
- ALANINE AMINOTRANSFERASE [1]: 47.67 u/L
- ALBUMIN [1]: 4.3 G/DL
- ALKALINE PHOSPHATASE [1]: 297.67 u/L
- ASPARTATE AMINOTRANSFERASE [1]: 89 u/L
- BLOOD UREA NITROGEN [1]: 17.67 mg/dL
- CARBON DIOXIDE [1]: 23.67 mmol/L
- CHLORIDE [1]: 105 MEQ/L
- CHOLESTEROL [1]: 61.33 mg/dL
- CREATINE PHOSPHOKINASE [1]: 1049.33 u/L
- CREATININE [1]: 0.22 mg/dL
- GLUCOSE [1]: 193.67 mg/dL
- LACTATE DEHYDROGENASE [1]: 149 u/L
- LIPASE [1]: 8 u/L
- PHOSPHORUS [1]: 11.77 mg/dL
- POTASSIUM [1]: 5.32 MEQ/L
- SODIUM [1]: 145.43 MEQ/L
- TOTAL BILIRUBIN [1]: 0.23 mg/dL
- TOTAL PROTEIN [1]: 5.93 G/DL
- URIC ACID [1]: 1.67 mg/dL
- ABSOLUTE BASOPHIL [2]: 0 CELLS/uL
- ABSOLUTE EOSINOPHIL [2]: 0 CELLS/uL
- ABSOLUTE LYMPHOCYTE [2]: 12652 CELLS/uL
- ABSOLUTE MONOCYTE [2]: 325.67 CELLS/uL
- ABSOLUTE SEGMENTED NEUTROPHIL [2]: 1422.33 CELLS/uL
- BASOPHIL [2]: 0%
- EOSINOPHIL [2]: 0%
- ERYTHROCYTE COUNT [2]: 5.36 x10E6/uL
- HEMATOCRIT [2]: 33.47%
- HEMOGLOBIN [2]: 12.6 G/DL
- LEUKOCYTE COUNT [2]: 14.4 x10E3/uL
- LYMPHOCYTE [2]: 88%
- MEAN CORPUSCULAR HEMOGLOBIN [2]: 23.57 pg
- MEAN CORPUSCULAR HEMOGLOBIN CONCENTRATION [2]: 37.67 G/DL
- MEAN CORPUSCULAR VOLUME [2]: 62.47 fL
- MONOCYTE [2]: 2.33%
- NEUTROPHIL [2]: 9.67%
- NUCLEATED RED BLOOD CELLS [2]: 0 /100WBC
- PLATELET COUNT [2]: 1373.67 x10E3/uL
- ALANINE AMINOTRANSFERASE [2]: 45 u/L
- ALBUMIN [2]: 4.13 G/DL
- ALKALINE PHOSPHATASE [2]: 377 u/L
- ASPARTATE AMINOTRANSFERASE [2]: 95.33 u/L
- BLOOD UREA NITROGEN [2]: 15.67 mg/dL
- CARBON DIOXIDE [2]: 26 mmol/L
- CHLORIDE [2]: 102.67 MEQ/L
- CHOLESTEROL [2]: 71 mg/dL
- CREATINE PHOSPHOKINASE [2]: 483.67 u/L
- CREATININE [2]: 0.18 mg/dL
- GLUCOSE [2]: 145.33 mg/dL
- LACTATE DEHYDROGENASE [2]: 795 u/L
- LIPASE [2]: 8.33 u/L
- PHOSPHORUS [2]: 9.37 mg/dL
- POTASSIUM [2]: 6.24 MEQ/L
- SODIUM [2]: 142.23 MEQ/L
- TOTAL BILIRUBIN [2]: 0.2 mg/dL
- TOTAL PROTEIN [2]: 5.57 G/DL
- URIC ACID [2]: 1.27 mg/dL
- ABSOLUTE BASOPHIL [3]: 0 CELLS/uL
- ABSOLUTE EOSINOPHIL [3]: 0 CELLS/uL
- ABSOLUTE LYMPHOCYTE [3]: 12914 CELLS/uL
- ABSOLUTE MONOCYTE [3]: 384.67 CELLS/uL
- ABSOLUTE SEGMENTED NEUTROPHIL [3]: 1034.67 CELLS/uL
- BASOPHIL [3]: 0%
- EOSINOPHIL [3]: 0%
- ERYTHROCYTE COUNT [3]: 5.17 x10E6/uL
- HEMATOCRIT [3]: 33.93%
- HEMOGLOBIN [3]: 13.03 G/DL
- LEUKOCYTE COUNT [3]: 14.33 x10E3/uL
- LYMPHOCYTE [3]: 90.33%
- MEAN CORPUSCULAR HEMOGLOBIN [3]: 25.2 pg
- MEAN CORPUSCULAR HEMOGLOBIN CONCENTRATION [3]: 38.4 G/DL
- MEAN CORPUSCULAR VOLUME [3]: 65.67 fL
- MONOCYTE [3]: 2.67%
- NEUTROPHIL [3]: 7%
- NUCLEATED RED BLOOD CELLS [3]: 0 /100WBC
- PLATELET COUNT [3]: 1324.67 x10E3/uL
- ALANINE AMINOTRANSFERASE [3]: 45 u/L
- ALBUMIN [3]: 4.13 G/DL
- ALKALINE PHOSPHATASE [3]: 385.67 u/L
- ASPARTATE AMINOTRANSFERASE [3]: 74.67 u/L
- BLOOD UREA NITROGEN [3]: 19 mg/dL
- CARBON DIOXIDE [3]: 28.67 mmol/L
- CHLORIDE [3]: 103.67 MEQ/L
- CHOLESTEROL [3]: 69.33 mg/dL
- CREATINE PHOSPHOKINASE [3]: 209.67 u/L
- CREATININE [3]: 0.22 mg/dL
- GLUCOSE [3]: 170 mg/dL
- LACTATE DEHYDROGENASE [3]: 103.33 u/L
- LIPASE [3]: 9 u/L
- PHOSPHORUS [3]: 10.83 mg/dL
- POTASSIUM [3]: 6.68 MEQ/L
- SODIUM [3]: 143.67 MEQ/L
- TOTAL BILIRUBIN [3]: 0.23 mg/dL
- TOTAL PROTEIN [3]: 5.9 G/DL
- URIC ACID [3]: 1.53 mg/dL
